Results taken from patent publication US9365589B2, “C5, C6 oxacyclic-fused thiazine dioxide compounds as BACE inhibitors, compositions, and their use” (Merck Sharp & Dohme Corp., priority 2012, dated 2016).
Read-outs that look alike come from different tables or passages of the source.

Key:
[1] = target: soluble human BACE1 catalytic domain (Homo sapiens (Human), UniProt P56817); test: BACE1 HTRF FRET Assay; type: biochemical; conditions: Ki calculated from IC50 using the Cheng-Prusoff equation; QSY7-APPswe-Eu substrate, pH 5.0
From the text: A homogeneous time-resolved FRET assay can be used to determine IC50 values for inhibitors of the soluble human BACE1 catalytic domain. This assay monitors the increase of 620 nm fluorescence that resulted from BACE1 cleavage of an APPswedish APP^swe mutant peptide FRET substrate (QSY7-[…]-Europium-amide). This substrate contains an N-terminal QSY7 moiety that serves as a quencher of the C-terminal Europium fluorophore (620 nm Em). In the absence of enzyme activity, 620 nm fluorescence is low in the assay and increased linearly over 3 hours in the presence of uninhibited BACE1 enzyme Inhibition of BACE1 cleavage of the QSY7-APP^swe-Eu substrate by inhibitors is manifested as a suppression of 620 nm fluorescence.
Reactions are initiated by addition of 10 μl of 600 nM QSY7-APP^swe-Eu substrate (200 nM final) to give a final reaction volume of 30 μl in a 384 well Nunc HTRF plate. The reactions are incubated at 30° C. for 1.5 hours. The 620 nm fluorescence is then read on a Rubystar HTRF plate reader (BMG Labtechnologies) using a 50 millisecond delay followed by a 400 millisecond acquisition time window Inhibitor IC50 values are derived from non-linear regression analysis of concentration response curves.

[2] = target: purified human autoBACE-2 (Homo sapiens (Human), UniProt Q9Y5Z0); test: BACE-2 Assay (BACE-HTRF assay); type: biochemical
Method: DMSO is present at 5% final concentration in the assay. Following laser excitation of sample wells at 320 nm, the fluorescence signal at 620 nm is collected for 400 ms following a 50 μs delay on a RUBYstar HTRF plate reader (BMG Labtechnologies). Raw RFU data is normalized to maximum (1.0 nM BACE/DMSO) and minimum (no enzyme/DMSO) RFU values. […] The Ki values are calculated from the IC50 using the Cheng-Prusoff equation.

Chain of soluble human BACE1 catalytic domain (P56817 75-416): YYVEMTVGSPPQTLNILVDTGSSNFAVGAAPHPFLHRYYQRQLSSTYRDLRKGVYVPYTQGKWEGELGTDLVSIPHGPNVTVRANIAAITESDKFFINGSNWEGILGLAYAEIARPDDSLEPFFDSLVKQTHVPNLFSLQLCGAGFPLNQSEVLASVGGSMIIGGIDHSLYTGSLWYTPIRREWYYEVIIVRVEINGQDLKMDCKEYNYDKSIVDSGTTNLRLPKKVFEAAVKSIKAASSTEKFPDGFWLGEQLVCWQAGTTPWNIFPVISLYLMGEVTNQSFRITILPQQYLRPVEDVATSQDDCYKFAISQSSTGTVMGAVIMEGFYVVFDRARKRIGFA
Chain of purified human autoBACE-2 (Q9Y5Z0 63-473 limits assumed): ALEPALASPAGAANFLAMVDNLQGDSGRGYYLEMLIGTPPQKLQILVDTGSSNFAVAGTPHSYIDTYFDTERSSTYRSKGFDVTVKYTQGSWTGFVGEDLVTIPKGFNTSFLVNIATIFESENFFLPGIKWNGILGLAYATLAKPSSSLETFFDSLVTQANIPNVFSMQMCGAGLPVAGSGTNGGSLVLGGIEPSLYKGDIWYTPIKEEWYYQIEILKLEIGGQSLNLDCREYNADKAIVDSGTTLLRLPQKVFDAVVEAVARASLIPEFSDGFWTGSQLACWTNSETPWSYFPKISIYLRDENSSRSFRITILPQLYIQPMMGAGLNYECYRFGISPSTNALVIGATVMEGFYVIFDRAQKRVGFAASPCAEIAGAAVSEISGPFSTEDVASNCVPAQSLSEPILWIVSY

SMILES | Ki [1] | Ki ([2]; read-out: BACE2 Ki) | Ki ([2]; BACE2 Ki (nM))
Cn1cc(C(=O)Nc2ccc(F)c([C@]34COC[C@H]3S(=O)(=O)C(C)(C)C(=N)N4)c2)c(C(F)(F)F)n1 [Example 1j] | 1100 nM | 309 nM | –
CC1(C)C(=N)N[C@@]2(c3cc(NC(=O)c4cnsn4)ccc3F)COC[C@H]2S1(=O)=O [Example 1v] | 8 nM | 1 nM | –
C#CCOc1ccc(C(=O)Nc2ccc(F)c([C@]34COC[C@H]3S(=O)(=O)C(C)(C)C(=N)N4)c2)nc1 [Example 1y] | 1 nM | 7 nM | –
COCC(=O)Nc1ccc(F)c([C@]23COC[C@H]2S(=O)(=O)C(C)(C)C(=N)N3)c1 [Example 1m] | 74 nM | 5 nM | –
C#CCOc1cnc(C(=O)Nc2ccc(F)c([C@]34COC[C@H]3S(=O)(=O)C(C)(C)C(=N)N4)c2)cn1 [Example 1w] | 1 nM | 2 nM | –
C[C@@]1(C2CC2)C(=N)N[C@@]2(c3cc(NC(=O)c4ccc(F)cn4)ccc3F)COC[C@H]2S1(=O)=O [Example 13a] | 39 nM | 6 nM | –
C[C@@]1(c2ccc(F)cc2)C(=N)N[C@@]2(c3cc(NC(=O)c4ccc(F)cn4)ccc3F)COC[C@H]2S1(=O)=O [Example 8a] | 84 nM | – | 9 nM
CC1(C)C(=N)N[C@@]2(c3cc(NC(=O)c4ccc(C(F)(F)F)cn4)ccc3F)COC[C@H]2S1(=O)=O [Example 1aa] | 3 nM | 8 nM | –
COc1cnc(C(=O)Nc2ccc(F)c([C@]34COC[C@H]3S(=O)(=O)C(C)(C)C(=N)N4)c2)c(C)n1 [Example 1t] | 10 nM | 6 nM | –
Cc1cc(C(=O)Nc2ccc(F)c([C@]34COC[C@H]3S(=O)(=O)C(C)(C)C(=N)N4)c2)no1 [Example 1f] | 201 nM | 24 nM | –
CC1(C)C(=N)N[C@@]2(c3cc(NC(=O)c4cn5ccsc5n4)ccc3F)COC[C@H]2S1(=O)=O [Example 1g] | 25 nM | 3 nM | –
CC1(C)C(=N)N[C@@]2(c3cc(NC(=O)c4ncc(Cl)cc4F)ccc3F)COC[C@H]2S1(=O)=O [Example 1k] | 3 nM | 1 nM | –
Cc1nc(C(=O)Nc2ccc(F)c([C@]34COC[C@H]3S(=O)(=O)C(C)(C)C(=N)N4)c2)c(C)o1 [Example 1l] | 6 nM | 1 nM | –
Cc1cc(C(=O)Nc2ccc(F)c([C@]34COC[C@H]3S(=O)(=O)C(C)(C)C(=N)N4)c2)on1 [Example 1i] | 559 nM | 93 nM | –
CC1(C)C(=N)N[C@@]2(c3cc(NC(=O)c4ccn(C(F)F)n4)ccc3F)COC[C@H]2S1(=O)=O [Example 1z] | 1 nM | 1 nM | –
COc1cnc(C(=O)Nc2ccc(F)c([C@]34COC[C@H]3S(=O)(=O)C(C)(C)C(=N)N4)c2)cn1 [Example 1d] | 6.2 nM | 5 nM | –
CC1(C)C(=N)N[C@@]2(c3cc(NC(=O)C(F)F)ccc3F)COC[C@H]2S1(=O)=O [Example 1n] | 258 nM | 33 nM | –
CC1(C)C(=N)N[C@@]2(c3cc(NC(=O)c4ccc(F)cn4)ccc3F)COC(CF)[C@H]2S1(=O)=O (single isomer, unassigned) [Example 4b] | 42 nM | – | 18 nM

SMILES | Ki [1] | Ki ([2]; read-out: BACE2 Ki) | Ki ([2]; BACE2 Ki (nM))
CO[C@H](C)C(=O)Nc1ccc(F)c([C@]23COC[C@H]2S(=O)(=O)C(C)(C)C(=N)N3)c1 [Example 1p] | 151 nM | 16 nM | –
COc1cnc(C(=O)Nc2ccc(F)c([C@]34COC(CF)[C@H]3S(=O)(=O)C(C)(C)C(=N)N4)c2)cn1 (single isomer, unassigned) [Example 4e] | – | – | 11 nM
Cc1cc(C#N)cnc1C(=O)Nc1ccc(F)c([C@]23COC[C@H]2S(=O)(=O)C(C)(C)C(=N)N3)c1 [Example 1u] | 1 nM | 1 nM | –
COc1ccc(C(=O)Nc2ccc(F)c([C@]34COC[C@H]3S(=O)(=O)C(C)(C)C(=N)N4)c2)nc1 [Example 1c] | 5.8 nM | 3 nM | –
COc1cnc(C(=O)Nc2ccc(F)c([C@]34COC[C@H]3S(=O)(=O)C(C)(C)C(=N)N4)c2)c(C)c1 [Example 1s] | 4 nM | 1 nM | –
CC1(C)C(=N)N[C@@]2(c3cc(NC(=O)c4ccc(C#N)cn4)ccc3F)COC[C@H]2S1(=O)=O [Example 1r] | 1 nM | 1 nM | –
CC1(C)C(=N)N[C@@]2(c3cc(NC(=O)c4ccc(OCF)cn4)ccc3F)COC[C@H]2S1(=O)=O [Example 1x] | 3 nM | 2 nM | –
CC1(C)C(=N)N[C@@]2(c3cc(NC(=O)c4ccc(F)cn4)ccc3F)COC(CF)[C@H]2S1(=O)=O (single isomer, unassigned) [Example 4a] | 3 nM | – | 1 nM
CC1(C)C(=N)N[C@@]2(c3cc(NC(=O)c4cnc(OCCF)cn4)ccc3F)COC[C@H]2S1(=O)=O [Example 1h] | 7 nM | 18 nM | –
CC1(C)C(=N)N[C@@]2(c3cc(NC(=O)c4ccc(Cl)cn4)ccc3F)COC[C@H]2S1(=O)=O [Example 1b] | 2.5 nM | 1 nM | –
Cn1ccc(C(=O)Nc2ccc(F)c([C@]34COC[C@H]3S(=O)(=O)C(C)(C)C(=N)N4)c2)n1 [Example 1e] | 13 nM | 2 nM | –
CC1(C)C(=N)N[C@@]2(c3cc(NC(=O)c4cnc(C(F)(F)F)cn4)ccc3F)COC[C@H]2S1(=O)=O [Example 1q] | 13 nM | 35 nM | –
CO[C@@H](C)C(=O)Nc1ccc(F)c([C@]23COC[C@H]2S(=O)(=O)C(C)(C)C(=N)N3)c1 [Example 1o] | 213 nM | 42 nM | –
COc1cnc(C(=O)Nc2ccc(F)c([C@]34COC(CF)[C@H]3S(=O)(=O)C(C)(C)C(=N)N4)c2)cn1 (single isomer, unassigned) [Example 4h] | – | – | 476 nM
C[C@]1(c2ccc(F)cc2)C(=N)N[C@@]2(c3cc(NC(=O)c4ccc(F)cn4)ccc3F)COC[C@H]2S1(=O)=O [Example 8b] | 1 nM | – | 1 nM
C[C@]1(C2CC2)C(=N)N[C@@]2(c3cc(NC(=O)c4ccc(F)cn4)ccc3F)COC[C@H]2S1(=O)=O [Example 13b] | 62 nM | 11 nM | –
CC1(C)C(=N)N[C@@]2(c3cc(NC(=O)c4ccc(F)cn4)ccc3F)COC[C@H]2S1(=O)=O [Example 1a] | 3.5 nM | 1 nM | –
